This is an account of results in US20110165601A1, “ASSAY SYSTEM” (THE UNIVERSITY COURT OF THE UNIVERSITY GLASGOW, priority 2006, published 2011).

One experiment deals with T1, SR Ca2+ ATPase (SERCA) (Oryctolagus cuniculus, UniProt P20647).
T1 construct: The atria were removed and discarded whereas the right and left ventricle was kept for experiments; endogenous in cells; host or cells: isolated rabbit ventricular cardiomyocytes, beta-escin permeabilised, frozen and thawed
Kind of experiment: SR uptake assay in permeabilised cell preparations. Particulars: FIG. 1C. The experiment is classed as cell-based, rabbit.

For the next experiment, the target named is T2, ryanodine receptor (Oryctolagus cuniculus, UniProt P30957).
T2 construct: The atria were removed and discarded whereas the right and left ventricle was kept for experiments; endogenous in cells; host or cells: isolated rabbit ventricular cardiomyocytes, beta-escin permeabilised, frozen and thawed
Kind of experiment: SR Ca2+ release assay (Ca2+ leak from permeabilised cell aggregates). The experiment is classed as cell-based, rabbit. Particulars: after 40 mM caffeine, FIG. 2.

Experiment [1] concerns myocytes. In words: Trypan blue assay (access of dye into myocytes). The experiment is classed as cell-based, rabbit. The text has this: (§1) The following description illustrates two methods which were used to test permeabilisation of rabbit myocytes by a batch of beta-escin, and to compare two different commercial batches of saponin.
(§2) The haemocytometer method of cell counting was used to count the number of non-permeable myocytes before and after application of the permeabilising agent (either saponin or β-Escin). Freshly dissociated cardiac muscle cells were obtained in a solution of low calcium. These were filtered and transferred into two 13.5 ml test tubes. Each was centrifuged for approximately 12 seconds at 5 g and the supernatant was discarded. Approximately 4.5 ml of EGTA solution was used to re-suspend the pellet in each tube. The contents of both were combined to form the stock suspension.
Access of the vital dye Trypan blue (MW: 950 approx.) into myocytes was used to evaluate permeabilisation by Saponin (Calbiochem brand) or β-escin. Permeabilised myocytes were identified by positive staining (blue colour) of the cell contents. Cells with intact membranes excluded the dye and it was this population that was counted.
For each run utilising the trypan blue assay, eight 13.5 ml test tubes were obtained. Each was labelled control 1, control 2, 0.1, 1, 10, 100, 1000 or 10000.
The cell stock suspension was agitated to ensure uniform distribution of cells and exactly 1 ml was pipetted into each tube. These were then transferred to the fridge to prevent degradation of the cells. Each tube was put through the following protocol in turn. The required volume of permeabilising agent was added (see Table 2) and a stopclock was started.
Once the incubation time had elapsed the tube was centrifuged for approximately 12 seconds at 5 g and the supernatant was withdrawn. The pellet was re-suspended in 0.5 mls of EGTA solution and 0.5 mls of 0.5% Trypan blue (BDH Laboratory Supplies, Poole, England) in 5 mM EGTA, which had been previously gently heated to ensure that the dye was dissolved. The tube was agitated and cell density determined by hamocytometer counting.
The protocol was followed for all concentrations under investigation; for the two controls no permeabilising agent was added and thus no incubation step was required.
(§3) Graphs were plotted and non-linear logistic curves were fitted using least squares technique by the Microcal™ Origin™ package (version 5.0, Microcal Software Inc.). ED50 values and their associated errors were also estimated using this software. Analysis of variance (ANOVA) using Tukey's post-test comparison was used to verify significance between ED50 values (GraphPad InStat™, GraphPad Software, V2.05a).

In a further experiment the test system is cardiac myocytes. Kind of experiment: Permeabilisation of a sample of cardiac myocytes. The experiment is classed as cell-based. The settings on record: at 1 mg/ml.
The subject of experiment [2] is myocytes. Kind of experiment: Ca2+-contraction assay (rod count by haemocytometer). The experiment is classed as cell-based, rabbit.
From the text: as §1, §2
Physiologically, myofilaments are activated by a rapid increase in the cytosolic Ca^2+ concentration from 0.1 μM to approximately 2 μM which occurs mainly due to Ca^2+ release from the SR (Levick, 2000). The Ca^2+-contraction assay used in this investigation relies upon the fact that cells with permeabilised membranes allow free access of Ca^2+ to the cytosol when exposed to high extracellular Ca^2+ concentrations. This activates the myofilaments of the cell causing it to contract into a ball. Non-permeabilised myocytes retain their characteristic rod shape. The effects of permeabilising agents on the cell population were quantified by counting the proportion of rod-shaped cells.
On each run utilising the Ca^2+-contraction assay, sixteen 13.5 ml test tubes were obtained. Eight of these were labelled “EGTA” whilst the remaining eight were labelled “CaEGTA”. Within both sets of eight, individual tubes were labelled control 1, control 2, 0.01, 0.1, 1, 10, 100 and 1000.
The cell stock suspension was agitated to ensure uniform distribution of cells and exactly 1 ml was pipetted into each tube labelled “EGTA”. These tubes were then transferred to the fridge to prevent degradation of the cells.
Each tube was put through the following protocol in turn. The required volume of permeabilising agent was added (see Table 2) and a stopclock was started. During the two minute incubation time, exactly 0.5 mls of the contents of the “EGTA” tube was withdrawn using a pipette and transferred to the corresponding “CaEGTA” tube.
Once the incubation time had elapsed the tubes were centrifuged for approximately 12 seconds at 5 g and the supernatant was withdrawn. The “EGTA” pellet was re-suspended in 0.5 mls of EGTA solution and the “CaEGTA” pellet in 0.5 mls of CeEGTA solution. Both tubes were agitated and the cell density determined by haemocytometer. The protocol was followed for all concentrations under investigation; for the two controls no permeabilising agent was added and thus no incubation step was required.
The effect of exposing myocytes to exceedingly high concentrations of permeabilising agent ([…]) was investigated for both β-Escin and saponin. The protocol followed was the same as the Ca^2+-contraction assay protocol (described above). 100 μl of the 100 mg/ml stock was added to the 1 ml suspension volume to achieve the required concentration (see Table 2). A control plus a low concentration of agent (1 μg/ml) were also studied to validate results.
The concentrations investigated were 1, 10, 100 and 1000 μg/ml for each saponin plus two controls. The experimental protocol followed was the same as for the Ca^2+-contraction assay method above.
as §3

T1 sequence (P20647 1-997 isoform P20647-2): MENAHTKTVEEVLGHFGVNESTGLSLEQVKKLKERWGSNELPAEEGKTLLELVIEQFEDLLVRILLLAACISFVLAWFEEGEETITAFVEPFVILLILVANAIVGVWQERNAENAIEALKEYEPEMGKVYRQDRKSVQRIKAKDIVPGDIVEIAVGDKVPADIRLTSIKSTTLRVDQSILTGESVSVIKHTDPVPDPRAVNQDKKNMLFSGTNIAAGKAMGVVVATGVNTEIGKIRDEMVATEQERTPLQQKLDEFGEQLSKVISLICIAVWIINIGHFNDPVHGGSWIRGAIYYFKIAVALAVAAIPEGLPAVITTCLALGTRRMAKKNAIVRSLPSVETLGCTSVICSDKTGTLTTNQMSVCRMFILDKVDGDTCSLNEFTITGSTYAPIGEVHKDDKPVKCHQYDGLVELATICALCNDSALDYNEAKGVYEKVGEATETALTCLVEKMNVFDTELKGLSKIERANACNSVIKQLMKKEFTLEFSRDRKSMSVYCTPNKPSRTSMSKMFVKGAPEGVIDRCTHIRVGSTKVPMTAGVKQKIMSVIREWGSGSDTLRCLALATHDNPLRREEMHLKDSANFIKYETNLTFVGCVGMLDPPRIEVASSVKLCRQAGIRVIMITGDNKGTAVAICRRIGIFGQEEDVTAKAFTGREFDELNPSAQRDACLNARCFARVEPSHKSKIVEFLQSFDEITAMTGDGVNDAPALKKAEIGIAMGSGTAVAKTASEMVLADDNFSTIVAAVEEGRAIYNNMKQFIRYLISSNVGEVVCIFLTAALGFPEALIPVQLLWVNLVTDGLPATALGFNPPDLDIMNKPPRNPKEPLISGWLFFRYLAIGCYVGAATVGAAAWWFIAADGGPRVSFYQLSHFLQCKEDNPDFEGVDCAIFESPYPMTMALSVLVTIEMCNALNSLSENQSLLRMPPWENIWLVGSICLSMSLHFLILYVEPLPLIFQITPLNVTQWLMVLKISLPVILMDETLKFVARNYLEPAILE
Description for SR Ca2+ ATPase (SERCA): As indicated above the figure, Ca^2+ was added to increase the [Ca^2+] within the aggregate to ˜1.5 μM. No Ca^2+ uptake occurs due to the absence of Mg^2+ (and therefore MgATP). Addition of Me starts the reaction. The initial increase of [Ca^2+] is caused by displacement of Ca^2+ from ATP.
Aliquots of cells are defrosted gradually with the addition of 9 volumes of S1 solution. This was followed by addition of CaCl2 to increase the free [Ca^2+] to ˜1.5 μM (˜100 μM total Ca^2+). The mixture can then be distributed into the 96 or high format arrays. Incubation of the preparation with the compound of interest can occur for 15-20 mins and the SR uptake reaction began by addition of 5.5 mM MgCl2 (with stirring). This provides the substrate (MgATP) to allow SR uptake of Ca^2+. There are two options for measurement: (i) follow the time course of the Ca^2+ uptake profile in detail by measuring every 1-2 s for up to 10 mins (ii) measuring the Ca^2+ concentration at a set time (e.g. 10 mins) after initiation of the reaction. […] These effects can be monitored in detail (option (i)—see FIG. 1 and description thereof for an example) or by simply measuring Fluo-3 fluorescence at one time point (option (ii)).
Description for ryanodine receptor: Ca^2+ uptake is stimulated by addition of an aliquot of Ca^2+. SERCA inhibition is induced by thapsigargin (5 uM).
The cell aggregate preparation is defrosted in 9× volumes of S2 with the addition of 2-3 aliquots of 100 μM CaCl2. The preparation is then aliquoted into the high format wells (96 or 384 well). […] The slow progressive increase in Ca^2+ concentration within the bath reflects Ca^2+ loss from the SR both via the ryanodine receptor and via independent leak pathways. […] As with the assay system above, two options for measurements are possible (i) follow the timecourse of the Ca^2+ release profile in detail by measuring every 1-2 s for 10 mins (ii) measuring the Ca^2+ concentration at a set time (e.g. 10 mins) after initiation of the reaction. Compounds that stimulate the SR Ca^2+ leak will cause the increase of Ca^2+ concentration to occur faster than control (vehicle). Conversely compounds that inhibit the SR Ca^2+ leak will slow the increase of Ca^2+ concentration.

Take `C/C=C(/C)C(=O)O[C@H]1C(C)=C2[C@H]([C@@H]1OC(=O)CCCCCCC)[C@@](C)(OC(C)=O)C[C@H](OC(=O)CCC)[C@@]1(O)[C@H]2OC(=O)[C@@]1(C)O` [thapsigargin]: the “effect on SERCA” value on SR Ca2+ ATPase (SERCA) was “inhibition”.

Consider `N.N.N.N.N.N.N.N.N.N.N.N.N.N.[Cl-].[Cl-].[Cl-].[Cl-].[Cl-].[Cl-].[O-2].[O-2].[Ru+3].[Ru+3].[Ru+4]` [ruthenium red], for which, on ryanodine receptor, the “effect on caffeine-stimulated Ca2+ leak from SR” value is listed as “blocked”.

β-escin: the “concentration from which trypan blue began to enter the myocytes” value in the experiment on myocytes [1] fell in the range of 1 to 10 µg/mL. The “mean rod count excluding dye” value in the experiment with myocytes [1] (at 0.1 μg/ml) is “approximately 90%”; in the experiment on myocytes [1] (at 1 μg/ml), “approximately 110%”. Besides, in the experiment with myocytes [1] (at 10 μg/ml), the “decrease of mean rod count, of the control value” is listed as “approximately 35%”. Besides, the “proportion of control population permeable to trypan blue” value in the experiment with myocytes [1] (at 100 μg/ml), in the experiment on myocytes [1] (at 1000 μg/ml) and with myocytes [1] (at 10000 μg/ml) was “Approximately 100%” throughout. In addition, the minimum effective concentration in the experiment with myocytes [1] (trypan blue assay) turned out to be 100 µg/mL; with myocytes [2] (Ca2+-contraction assay, 5 mM Ca2+ EGTA), 100 µg/mL. Further, in the experiment on cardiac myocytes, the “proportion of cardiac myocytes permeabilised” value is “about 10%”. Moreover, the “concentration at which permeabilisation (decrease in rod count in 5 mM Ca2+ EGTA) began” value in the experiment with myocytes [2] (Ca2+-contraction assay) turned out to be 10 µg/mL. Besides, the “concentration range over which permeabilisation was produced” value in the experiment on myocytes [2] (Ca2+-contraction assay) lay in the range of 1 to 10000 µg/mL. Further, the “proportion of cell population hyperpermeable / permeabilised” value in the experiment on myocytes [2] (at 100 μg/ml), with myocytes [2] (at 1000 μg/ml) and in the experiment with myocytes [2] (at 10000 μg/ml) was “Approximately 100%” in each case.
